In patent publication US9994558B2, “Multicyclic compounds and methods of using same” (Karyopharm Therapeutics Inc., priority 2013, dated 2018) one finds IC50 data, which are given here for 8 compounds.

Assay type in all cases: cell-based
The subject of one assay is 3T3 cells. Briefly: MTT cell proliferation assay, 3T3 cells. As to conditions: Mus musculus, NIH3T3; 3T3 fibroblast cells; incubation approximately 64-72 hours. As to the method: (§1) The MTT cell proliferation assay was used to study the cytotoxic properties of the compounds. The assay was performed according to the method described by Roche Molecular Biochemicals, with minor modifications. The assay is based on the cleavage of the tetrazolium salt, MTT, in the presence of an electron-coupling reagent. The water-insoluble formazan salt produced must be solubilized in an additional step. Cells grown in a 96-well tissue culture plate were incubated with the MTT solution for approximately 4 hours. After this incubation period, a water-insoluble formazan dye formed. After solubilization, the formazan dye was quantitated using a scanning multi-well spectrophotometer (ELISA reader). […] The cells were seeded at 5,000-10,000 cells in each well of 96-well plate in 100 μL of fresh culture medium and were allowed to attach overnight. The stock solutions of the compounds were diluted in 100 μL cell culture medium to obtain eight concentrations of each test compound, ranging from 1 nM to 30 μM. […] All optical densities were measured at 490 nm using a Vmax Kinetic Microplate Reader (Molecular Devices). In most cases, the assay was performed in duplicate and the results were presented as a mean percent inhibition to the negative control±SE. The following formula was used to calculate the percent of inhibition. Inhibition (%)=(1−(ODo/OD))×100.
(§2) The compounds were tested against MS751, Z138 and 3T3 cells. The MS751 cell line is derived from a metastasis to lymph node of human cervix from a patient diagnosed with squameous cell carcinoma of the cervix. The […] cell line is a mature B-cell acute lymphoblastic leukemia cell line derived from a patient with chronic lymphocytic leukemia. 3T3 cells are standard fibroblast cells; they were originally isolated from Swiss mouse embryo tissue.
In general terms: Tetrazolium dyes change colour on reduction, which living cells bring about.

The subject of the next assay is Z138 cells. The experiment in a line: MTT cell proliferation assay, Z138 cells. As to conditions: Homo sapiens, Z-138, incubation approximately 64-72 hours. As to the method: as §1, §2
Another assay concerns MS751 cells. The experiment in a line: MTT cell proliferation assay, MS751 cells. The note with it: Homo sapiens, incubation approximately 64-72 hours. As to the method: as §1, §2
The next assay deals with NHDF cells. The experiment in a line: MTT cell proliferation assay, NHDF cells. As to conditions: normal human dermal fibroblast cells. As to the method: as §1, with “(%)=(1−(ODo/OD))×100. […]” for “(%)=(1−(ODo/OD))×100.”
The next assay deals with SNU-182 cell line. Briefly: MTT cell proliferation assay, SNU-182 cells. The note with it: human hepatoma cell line. As to the method:
as §1, with “(%)=(1−(ODo/OD))×100. […]” for “(%)=(1−(ODo/OD))×100.”

For another assay, the system named is HEP 3B cells. Briefly: MTT cell proliferation assay, HEP 3B cells. As to conditions: Hep3B; human hepatocellular carcinoma cells. As to the method: as §1, with “(%)=(1−(ODo/OD))×100. […]” for “(%)=(1−(ODo/OD))×100.”
The next assay deals with Hep G2 cells. Briefly: MTT cell proliferation assay, Hep G2 cells. The note with it: HepG2; human hepatocellular carcinoma cells. As to the method:
as §1, with “(%)=(1−(ODo/OD))×100. […]” for “(%)=(1−(ODo/OD))×100.”

Another assay deals with L3.6pl cell line. Briefly: MTT cell proliferation assay, L3.6pl cells. As to conditions: Homo sapiens, pancreatic cancer cell line. As to the method: as §1, with “(%)=(1−(ODo/OD))×100. […]” for “(%)=(1−(ODo/OD))×100.”
The test system of another assay is UCH-2 cell line. The experiment in a line: MTT cell proliferation assay, UCH-2 cells. As to conditions: UCH2; chordoma cell line. As to the method:
as §1, with “(%)=(1−(ODo/OD))×100. […]” for “(%)=(1−(ODo/OD))×100.”

In general, IC50 refers to the concentration needed to halve the response being measured. As to `CN(CCOc1ccc(-c2ccc(C(=O)N3CC(F)(F)C3)cc2)cc1Cl)C(=O)/C=C/c1ccc(N)nc1` [Compound 334, (E)-3-(6-aminopyridin-3-yl)-N-(2-(3-chloro-4′-(3,3-difluoroazetidine-1-carbonyl)biphenyl-4-yloxy)ethyl)-N-methylacrylamide], the IC50 in the assay on 3T3 cells was 5 to 10 µM; in the assay on Z138 cells, under 100 nM; in the assay on MS751 cells, 100 to 5000 nM.
`CC(=O)c1ccc(-c2ccc(OCCNC(=O)/C=C/c3cccnc3C)c(Cl)c2)s1` [Compound 305, (E)-N-(2-(4-(5-acetylthiophen-2-yl)-2-chlorophenoxy)ethyl)-3-(2-methylpyridin-3-yl) acrylamide]: the figures for the IC50 in the assay on 3T3 cells, in the assay with Z138 cells and in the assay on MS751 cells were over 10 µM, over 10000 nM and over 10000 nM, respectively.
As for `CC(C)(CNC(=O)/C=C/c1ccc(N)nc1)Oc1cc(Cl)cc(-c2ccc(C(=O)N3CCOCC3)cc2)c1` [Compound 347, (E)-3-(6-aminopyridin-3-yl)-N-(2-(5-chloro-4′-(morpholine-4-carbonyl)biphenyl-3-yloxy)-2-methylpropyl)acrylamide], the IC50 is over 10 µM in the assay on 3T3 cells, under 100 nM in the assay with Z138 cells and 100 to 5000 nM in the assay on MS751 cells.
Regarding `CC(=O)c1ccc(-c2ccccc2OCCNC(=O)/C=C/c2cccnc2)s1` [Compound 312, (E)-N-(2-(2-(5-acetylthiophen-2-yl)phenoxy)ethyl)-3-(pyridin-3-yl)acrylamide], the IC50 in the assay on 3T3 cells was in the range of 0.1 to 5 µM; with Z138 cells it was 100 to 5000 nM; in the assay on MS751 cells it was 100 to 5000 nM.
On to `Nc1ccc(CNC(=O)/C=C/COc2ccc(-c3ccc(C(=O)N4CCC(F)(F)CC4)cn3)cc2C(F)(F)F)cn1` [Compound 353, (E)-N-((6-aminopyridin-3-yl)methyl)-4-(4-(5-(4,4-difluoropiperidine-1-carbonyl)pyridin-2-yl)-2-(trifluoromethyl)phenoxy)but-2-enamide], for which the IC50 in the assay on 3T3 cells is over 10 µM; with Z138 cells, 100 to 5000 nM; in the assay on MS751 cells, 100 to 5000 nM.
Turning to `CC(=O)c1ccc(-c2ccc(Cl)c(OCCNC(=O)/C=C/c3cccnc3)c2)s1` [Compound 303, (E)-N-(2-(5-(5-acetylthiophen-2-yl)-2-chlorophenoxy)ethyl)-3-(pyridin-3-yl)acrylamide], the IC50 in the assay on 3T3 cells is over 10 µM; with Z138 cells it was 100 to 5000 nM; in the assay with MS751 cells, 100 to 5000 nM.
As for `Nc1ccc(/C=C/C(=O)NCCOc2ccc(-c3ccc(C(=O)N4CC(F)(F)C4)cc3)cc2Cl)cn1` [Compound 318, (E)-3-(6-aminopyridin-3-yl)-N-(2-(3-chloro-4′-(3,3-difluoroazetidine-1-carbonyl)biphenyl-4-yloxy)ethyl)acrylamide], the IC50 with 3T3 cells is 0.1 to 5 µM; in the assay with NHDF cells, under 100 nM; in the assay on SNU-182 cell line it was under 100 nM; in the assay with HEP 3B cells, under 100 nM; with Z138 cells, under 100 nM; with Hep G2 cells, under 100 nM. Moreover, the IC50 with L3.6pl cell line was under 100 nM; with UCH-2 cell line, over 30 µM; in the assay on MS751 cells, under 100 nM.
In the case of `Nc1ccc(/C=C/C(=O)NCCOc2ccc(-c3ccc(C(=O)N4CCCCC4)cc3)cc2Cl)cn1` [Compound 329, (E)-3-(6-aminopyridin-3-yl)-N-(2-(3-chloro-4′-(piperidine-1-carbonyl)biphenyl-4-yloxy)ethyl)acrylamide], the IC50 was over 10 µM in the assay on 3T3 cells, under 100 nM in the assay on Z138 cells and under 100 nM with MS751 cells.
